Experimental data taken from patent US20240066133A1, “THERAPEUTIC AGENTS AND CONJUGATES THEREOF” (Beijing Xuanyi PharmaSciences Co., Ltd., priority 2020, published 2024).
Where two headings read alike, the source gives them in different places.

How the values were obtained:
[1] = biological target: T1, Human STING (hSTING-R232) (Homo sapiens, UniProt Q86WV6, H232R); assay: Activation of human STING signaling in THP1-Dual KI-hSTING-R232 cells (IRF promoter, QUANTI-Luc); assay type: cell-based; details: THP1 cell line, 24 h, read-out: EC50 IRF3
T1 construct: host or cells: THP1-Dual KI-hSTING-R232 cells
T1 sequence (Q86WV6 whole entry H232R): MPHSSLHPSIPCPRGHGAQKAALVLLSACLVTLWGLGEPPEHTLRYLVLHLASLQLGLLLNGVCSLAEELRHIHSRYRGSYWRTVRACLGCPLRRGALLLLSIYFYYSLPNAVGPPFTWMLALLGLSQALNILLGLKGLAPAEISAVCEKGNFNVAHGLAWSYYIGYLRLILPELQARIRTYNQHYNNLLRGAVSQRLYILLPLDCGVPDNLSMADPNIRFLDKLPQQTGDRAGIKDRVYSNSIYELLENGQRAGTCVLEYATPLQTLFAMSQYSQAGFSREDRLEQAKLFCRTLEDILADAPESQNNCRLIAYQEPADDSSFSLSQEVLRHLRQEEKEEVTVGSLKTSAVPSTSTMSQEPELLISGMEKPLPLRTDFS
Method: Activation of Human STING Signaling in THP1 Cell Line
The cells were treated with 20 μl/well of compounds at 8 concentrations in duplicate in 96-well plate, and incubate for 24 h. To measure IRF promoter activity, 15 μl of cell culture supernatant was mixed with 45 μl QUANTI-Luc in an opaque 96-well plate and immediately measured using Luminometer; to measure NF-κB promoter activity, 15 μl of supernatant was mixed with 90 μl QUANTI-Blue, and incubated at 37° C. for 90 minutes, and read at OD650 nm. EC50 was calculated by nonlinear regression fit with 4-parameter responsive curve fitting using GraphPad Version 8 software (Table 1).

hSTING R232 = biological target: T2, hSTING R232 (Homo sapiens, UniProt Q86WV6, H232R); assay: IRF activation in 293T-Dual hSTING R232 cells (Quanti-Blue); assay type: cell-based; details: 24 hr, read-out: EC50 IRF3
T2 construct: host or cells: 293T-Dual hSTING R232 cells
T2 sequence (Q86WV6 whole entry H232R): as above
Method: A test compound with a serial of 1:3 dilution was prepared in complete medium, and 20 μL of the compound was added to the corresponding well, and incubated with the cells at 37° C. incubator for 24 hr.
To determine the effect on interferon regulatory factor (IRF) activation, 15 μL of cell culture supernatant was transferred into a fresh 96-half area-well plate, 90 μL of Quanti-Blue was added to each well and incubated at 37° C. for 90 min. OD at 650 nm was recorded. EC50 was calculated by nonlinear regression fit with 4-parameter responsive curve fitting using GraphPad Version 8 software (Table 2).

MC38 tumor cells [2] = details: IT 5 ug/mouse every three days, three injections; for anti-tumor efficacy (tumor growth, FIG. 1): single agent, subcutaneous MC38
Method: To Evaluate the in vivo efficacy of A5-I, A5-II, A6-I and A6-II, C57BL/6 mouse was subcutaneously inoculated in the right flank with MC38 tumor cells (1×10^6) in 40 ul of HBSS for tumor development. Treatment started when tumor size reached around 80-100 mm^3, on day 7 after tumor cell implantation. Compounds were administered by IT injection and repeated every three days with total three injections. […] Tumor volumes were measured twice to thrice weekly.

MC38 tumor cells [3] = assay: MC38 murine syngeneic model, Example 98 (Table 5); assay type: in vivo, C57BL/6 mouse; details: IT, Q3d × 3; doses per Table 5 (A5-I 3, A19 50 and 17, A33 17×2/8×1, A34 50, A38 51×1/17×2, A69 50, A71 50, A85 46 μg/mouse)
Method: Example 98. Evaluation of Compound A5-I, A19, A33, A34, A38, A69, A71 and A85 in MC38 Murine Syngeneic Model
Compounds (listed in Table 5), were administered by IT injection.

BP1(=O)OC[C@H]2O[C@@H](n3cnc4c(N)ncnc43)[C@H](F)[C@@H]2O[P@@](=O)(S)OC[C@H]2O[C@@H](n3cnc4c(=O)[nH]c(N)nc43)[C@H](F)[C@@H]2O1 (single isomer, unassigned) [Compound A1]
EC50 ([1]; Assay Results 1 (average of more than 2 runs)): 450 nM | EC50 ([1]; Assay Results 2 (single run)): 564 nM | EC50 (hSTING R232): 59 nM

B[P@]1(=O)OC[C@H]2O[C@@H](n3cnc4c(N)ncnc43)[C@H](F)[C@@H]2O[P@@](=O)(S)OC[C@H]2O[C@@H](n3cnc4c(N)ncnc43)[C@H](F)[C@@H]2O1 [Compound A5-I, ((2R,3R,3aR,5S,7aR,9R,10R,10aR,12S,14aR)-2,9-bis(6-amino-9H-purin-9-yl)-3,10-difluoro-12-mercapto-5,12-dioxidooctahydro-2H,7H-difuro [3,2-d:3′,2′-j][1,3,7,9]tetraoxa[2,8]diphosphacyclododecin-5-yl)trihydroborate]
tumor regression (FIG. 1) (MC38 tumor cells [2]): complete regression for all treated mice | anti-tumor efficacy (tumor growth, FIG. 1) (MC38 tumor cells [2]): significant anti-tumor efficacy | anti-tumor activity compared to vehicle-treated group (FIG. 5) (MC38 tumor cells [3]): significantly improved anti-tumor activity

B[P@@]1(=O)OC[C@H]2O[C@@H](n3cnc4c(N)ncnc43)[C@H](F)[C@@H]2O[P@](=O)(S)OC[C@H]2O[C@@H](n3cnc4c(N)ncnc43)[C@H](F)[C@@H]2O1 [Compound A6-II]
anti-tumor efficacy (tumor growth, FIG. 1) (MC38 tumor cells [2]): significant anti-tumor efficacy

BP1(=O)OC[C@H]2O[C@@H](n3cnc4c(N)ncnc43)[C@H](F)[C@@H]2O[P@](=O)(S)OC[C@H]2O[C@@H](n3cnc4c(N)ncnc43)[C@H](F)[C@@H]2O1 (some centres unmarked) [Compound A6-I]
anti-tumor efficacy (tumor growth, FIG. 1) (MC38 tumor cells [2]): significant anti-tumor efficacy
